Laboratory results published in patent EP4685136A1, “AMINO LIPID, AND LIPID NANOPARTICLES AND USE THEREOF” (Shenzhen MagicRNA Biotechnology Co., Ltd., priority 2023, dated 2024).

What was measured:
C57BL/6 mice = test: In vivo delivery of luciferase mRNA by intramuscular injection of LNPs (IVIS imaging); conditions: total fluorescence intensity, Luc mRNA LNP, 0.5 mg/kg mRNA, 12 hours
Protocol: Preparation of lipid nanoparticles: same as Example 36.
(§1) Animal preparation: 6-week-old female C57BL/6 mice weighing about 20 g were selected and raised in an SPF-grade feeding room. Animal experiments were conducted strictly in accordance with the guidelines of the National Institutes of Health and animal ethics requirements.
In vivo delivery: Five C57BL/6 mice were randomly selected from each group and injected with lipid nanoparticle solution at a dose of 0.5 mg/kg mRNA by intramuscular injection. Twelve hours later, 200 µL of 10 mg/mL D-luciferin potassium salt was injected into the peritoneal cavity of each mouse. Five minutes later, the mice were placed under an in vivo imaging system (IVIS-200, Xenogen) to observe the total fluorescence intensity of each mouse and take photos for recording. The expression intensity of Luc mRNA delivered by intramuscular injection of LNPs composed of representative amino lipid compounds is shown in Table 3, with DLin-MC3 and SM-102 as controls. Table 3 Expression intensity of Luc mRNA delivered by intramuscular injection of LNPs composed of representative amino lipids

primary BMDC cells = test: Transfection of Luc mRNA lipid nanoparticles on primary BMDC cells (ONE-Glo luciferase readout); type: cell-based, C57BL/6 mice; conditions: expression intensity of Luc mRNA on BMDCs; 10 µL LNP per well, 20,000 cells per well, 12 hours
Protocol: as §1
Cell acquisition: C57BL/6 mice were sacrificed by cervical dislocation and immersed in 75% alcohol for 5 minutes for disinfection. The thigh and tibia of the mice were dissected and the attached muscles were removed to expose the bone. The bone marrow in the tibia was blown out with a 1 mL syringe filled with PBS. The obtained bone marrow was dispersed by blowing and filtered through a 50 µm filter mesh to remove impurities. Red blood cell lysis solution (3-4 mL) was added to the obtained filtrate and allowed to stand for 5 minutes. Then, the supernatant was removed by centrifugation at 800 g for 5 minutes. The obtained cells were placed in 1640 culture medium (containing 10% fetal bovine serum, 20 ng/mL GMCSF, 10 ng/mL IL4) for being resuspended, and inoculated into 6-well plates at a density of 100,000 cells/mL of culture medium. The plates were placed in a cell culture incubator containing 5% CO2 at 37°C, and the medium was half-changed every 2 days. On the seventh day, the suspended cells and loosely adherent cells were collected and inoculated into 96-well all-white ELISA plates at a density of 20,000 cells per well, with a culture medium volume of 100 µL.
Cell transfection: the lipid nanoparticles encapsulating luciferase mRNA were added to a 96-well all-white ELISA plate with spreaded primary cells, and the volume of mRNA lipid nanoparticles added to each well was controlled to be 10 µL. Then, the plate was placed in an incubator with 5% CO2 concentration at 37°C for 12 hours.
Transfection efficiency detection: 20 µL of substrate ONE-Glo™ Luciferase was added to each well of a 96-well all-white ELISA plate, and the assay was performed using a multifunctional microplate reader (Biorek SynergyH1) after 1 min. The expression intensity of Luc mRNA transfected on BMDCs by lipid nanoparticles (LNPs) composed of representative amino lipid compounds is shown in Table 2, with DLin-MC3 and SM0102 as controls. Table 2 Expression intensity of transfection of representative amino lipid compounds on BMDCs

[1] = Encapsulation efficiency of Luc-mRNA lipid nanoparticles (Quant-iT RiboGreen RNA Kit); type: physicochemical; conditions: LNP of amino lipid:DSPC:cholesterol:DMG-PEG2000 47.5:10:41:1.5 with Luc-mRNA; lipid to mRNA mass ratio about 40:1
Protocol: (§2) The amino lipid compound of the present invention (or DLin-MC3 or SM-102 (both purchased from AVT (Shanghai) Pharmaceutical Technology Co., Ltd.)), phospholipid lipid (DSPC), cholesterol, and PEGylated lipid (DMG-PEG2000) were mixed and dissolved in anhydrous ethanol at a molar ratio of 47.5:10:41:1.5. The resulting ethanol solution and citric acid buffer (50 mM, pH = 4.0) dissolved with Luc-mRNA (TriLink) were mixed in a microfluidic chip at a volume ratio of 1:3 using a microfluidic preparation system to prepare a crude solution of lipid nanoparticles, which was then dialyzed in 1X PBS at 4°C for 6 h using a dialysis cassette (Fisher, MWCO 20,000). The product was filtered through a 0.22 µm microporous filter membrane before use. The mass ratio of the amino lipid compound to luciferase mRNA (Luc mRNA) was about 40:1.
The encapsulation efficiency was determined according to the standard procedure of the Quant-iT RiboGreen RNA Kit. Table 1 Characterization data of LNPs prepared using representative amino lipid compounds

[2] = Particle size and PDI of Luc-mRNA lipid nanoparticles (Nano-ZS ZEN3600, Malvern); type: physicochemical; conditions: LNP of amino lipid:DSPC:cholesterol:DMG-PEG2000 47.5:10:41:1.5 with Luc-mRNA; lipid to mRNA mass ratio about 40:1
Protocol: as §2
The particle size and PDI (polydispersity index) of the prepared lipid nanoparticles were measured by Nano-ZSZEN3600 (Malvern). 20 µL of lipid nanoparticle (LNP) solution was taken for particle size measurement, and cycled three times with each cycle for 30 s.

B16-OVA melanoma cells = test: Tumor therapeutic effect of OVA mRNA LNP vaccine in B16-OVA melanoma-bearing mice; type: in vivo, C57BL/6 mice
Protocol: Preparation method: The amino lipid compound of the present invention was mixed with DSPC, cholesterol and DMG-PEG2000 at a molar ratio of 47.5:10:41:1.5 and dissolved in anhydrous ethanol. The obtained ethanol solution and citric acid buffer (50 mM, pH = 4.0) dissolved with OVA-mRNA were mixed in a microfluidic chip at a volume ratio of 1:3 using a microfluidic preparation system to prepare lipid nanoparticles, and then dialyzed in 1X PBS at 4°C for 6 h using a dialysis cassette (Fisher, MWCO 20,000) and filtered with a 0.22 µm microporous filter membrane before use. The mass ratio of the amino lipid compound to ovalbumin mRNA (OVA mRNA) was about 40: 1.
Animal preparation: Female C57BL/6 mice aged 5-6 weeks, weighing about 18-20 g were selected and kept in an SPF-grade feeding room. Animal experiments were conducted strictly in accordance with the guidelines of the National Institutes of Health and animal ethics requirements.
In vivo delivery: B16-OVA melanoma cells (1.5 × 10^5) were injected subcutaneously into the lateral thigh of mice. Vaccination was started when the tumor size reached 50 mm^3(approximately day 6 or 7 after tumor inoculation). Animals were immunized twice by intramuscular injection of LNP formulation containing 1 µg of OVA-mRNA, with an interval of the second injection from the first injection being 7 days. Tumor growth was measured three times per week using a digital caliper and calculated as 0.5 × length × width × width. Mice were euthanized when tumor volume reached 1500 mm^3.

| SMILES | Fluorescence intensity (C57BL/6 mice) | Luminescence intensity (primary BMDC cells) | Encapsulation efficiency (%) [1] [%] | Average particle size (nm) [2] [nm] | PDI [2] | mice achieved complete remission (B16-OVA melanoma cells; two intramuscular injections 7 days apart of LNP containing 1 µg OVA-mRNA (Figure 3)) [%] | tumor growth rate (B16-OVA melanoma cells; two intramuscular injections 7 days apart of LNP containing 1 µg OVA-mRNA, compared with MC3 group (Figure 2)) |
| --- | --- | --- | --- | --- | --- | --- | --- |
| CCCCCCCC(=O)OCC(CCCCCC)OC(=O)CCCCCN(CCCO)CCCCCC(=O)OC(CCCCCC)COC(=O)CCCCCCC (centres unmarked) [E8LA8B6O3] | 7.7E+08 | 1.3E+05 | 90.03 | 84 | 0.07 | – | – |
| CCCCCCCCCC(=O)OCC(CCCCCC)OC(=O)CCCCCN(CCCO)CCCCCC(=O)OC(CCCCCC)COC(=O)CCCCCCCCC (centres unmarked) [E8LA10B6O3] | 1.6E+09 | 5.2E+04 | 93.95 | 73 | 0.09 | – | – |
| CCCCCCCCCCC(COC(=O)CCCCC)OC(=O)CCCCCN(CCCO)CCCCCC(=O)OC(CCCCCCCCCC)COC(=O)CCCCC (centres unmarked) [E12LA6B6O3] | 2.2E+09 | – | 98.26 | 75 | 0.08 | 100 | significantly slower than that of the MC3 group |
| CCCCCCCCCCC(COC(=O)CCCCC)OC(=O)CCCCCN(CCCCCC(=O)OC(CCCCCCCCCC)COC(=O)CCCCC)[C@H]1CC[C@H](O)CC1 (relative stereo) [E12LA6B6O10] | 1.6E+09 | – | 93.0 | 102 | 0.10 | – | – |
| CCCCCCCCCCC(COC(=O)CCCCCCC)OC(=O)CCCCCN(CCCO)CCCCCC(=O)OC(CCCCCCCCCC)COC(=O)CCCCCCC (centres unmarked) [E12LA8B6O3] | 8.2E+08 | 7.6E+04 | 94.90 | 73 | 0.10 | – | – |
| CCCCCCCCCCCC(=O)OCC(CCCCCCCCCC)OC(=O)CCCCCN(CCCCCC(=O)OC(CCCCCCCCCC)COC(=O)CCCCCCCCCCC)CCCC(=O)NCCCN(C)C (centres unmarked) [E12LA12B6O30A10] | – | 4.1E+05 | 91.8 | 117 | 0.08 | – | – |
| CCCCCCCCCCCC(=O)OCC(CCCCCCCCCC)OC(=O)CCCCCN(CCCCCC(=O)OC(CCCCCCCCCC)COC(=O)CCCCCCCCCCC)CCCC(=O)OCCCN(C)C (centres unmarked) [E12LA12B6O30A9] | – | 2.7 E+05 | 92.4 | 121 | 0.14 | – | – |
| CCCCCCCCCCC(COC(=O)CCCCC)OC(=O)CCCCCN(CCCCCC(=O)OC(CCCCCCCCCC)COC(=O)CCCCC)CCCOC(=O)CCCCCCN(C)C (centres unmarked) [E12LA6B6O3A6] | 1.5E+09 | – | 98.5 | 103 | 0.07 | – | – |
| CCCCCCCCCCC(COC(=O)CCCCC)OC(=O)CCCCCN(CCCCCC(=O)OC(CCCCCCCCCC)COC(=O)CCCCC)CCCOC(=O)CCN1CCCCC1 (centres unmarked) [E12LA6B6O3A8] | – | 1.9 E+05 | 95.3 | 124 | 0.06 | – | – |
| CCCCCCCCC(COC(=O)CCCCCCC)OC(=O)CCCCCN(CCCO)CCCCCC(=O)OC(CCCCCCCC)COC(=O)CCCCCCC (centres unmarked) [E10LA8B6O3] | 1.8E+09 | – | 92.23 | 71 | 0.11 | – | – |
| CCCCCCCCCCC(CCOC(=O)CCCCC)OC(=O)CCCCCN(CCCO)CCCCCC(=O)OC(CCCCCCCCCC)CCOC(=O)CCCCC (centres unmarked) [K3LA6B6O3] | 2.0E+09 | 5.4E+05 | 98.8 | 129 | 0.08 | – | – |
| CCCCCCCCCCC(COC(=O)CCCCC)OC(=O)CCCCCN(CCCCCC(=O)OC(CCCCCCCCCC)COC(=O)CCCCC)CCCOC(=O)CCCCN(C)C (centres unmarked) [E12LA6B6O3A5] | – | 1.5 E+05 | 97.8 | 117 | 0.08 | – | – |
| CCCCCCCCCCC(COC(=O)CCCCC)OC(=O)CCCCCN(CCCCCC(=O)OC(CCCCCCCCCC)COC(=O)CCCCC)CCCN(C)C (centres unmarked) [E12LA6B6O12] | – | 4.9 E+04 | 97.6 | 97 | 0.05 | – | – |
| CCCCC/C=C\C/C=C\CCCCCCCCC(CCCCCCCC/C=C\C/C=C\CCCCC)OC(=O)CCCN(C)C [DLin-MC3, reference compound] | 7.6 E+08 | 4.1E+04 | 89.74 | 72 | 0.12 | – | – |
| CCCCCCCCCCCC(=O)OCC(CCCCCCCCCC)OC(=O)CCCCCN(CCCC#N)CCCCCC(=O)OC(CCCCCCCCCC)COC(=O)CCCCCCCCCCC (centres unmarked) [E12LA12B6O31] | – | 9.6 E+04 | 98.4 | 130 | 0.04 | – | – |
| CCCCCCCCCC(=O)OCC(CCCCCCCC)OC(=O)CCCCCN(CCCO)CCCCCC(=O)OC(CCCCCCCC)COC(=O)CCCCCCCCC (centres unmarked) [E10LA10B6O3] | 1.2E+09 | 6.9E+04 | 95.90 | 70 | 0.06 | – | – |
| CCCCCCCCCCC(COC(=O)CCCCC)OC(=O)CCCCCN(CCCCCC(=O)OC(CCCCCCCCCC)COC(=O)CCCCC)CCCOC(=O)C1CCN(C)CC1 (centres unmarked) [E12LA6B6O3A7] | – | 7.3 E+04 | 96.5 | 110 | 0.05 | – | – |
| CCCCCCCCCCC(COC(=O)CCCCC)OC(=O)CCCCCN(CCCCC)CCCCCC(=O)OC(CCCCCCCCCC)COC(=O)CCCCC (centres unmarked) [E12LA6B6O9] | – | 2.2 E+05 | 93.2 | 95 | 0.11 | – | – |
